In patent publication US8178058B2, “High throughput cell-based assays, methods of use and kits” (EMD Millipore Corporation, priority 2007, dated 2012):

Test system: activated caspases
Assay: Cell based apoptosis assay (FLICA FAM-VAD-FMK staining, gravity washing, flow cytometry)
Conditions: cells treated 2 hours at 37° C with 10, 0.63, 0.06 microMolar Staurosporine vs non-induced control
Procedure: Cell based apoptosis assay was performed using gravity based filtration.
Cells were treated with increasing concentration of well-known apoptosis inducer (Staurosporine) for 2 hours at 37° C. After induction, cells were treated with FLICA. Unbound FLICAs were removed from the nonapoptotic cells by gravity washing the cells with wash buffer 4 times. After gravity washing cells labeled with FLICAs (FAM-VAD-FMK, pan-caspases FLICA) was examined by flow cytometry.
Shown in FIGS. 10A and B are flow cytometric histograms of FAM-VAD-FMK stained cells from induced (10, 0.63, 0.06 microMolar of Staurosporine) and non-induced control samples.
Notice the dose response.

CN[C@@H]1C[C@H]2O[C@@](C)([C@@H]1OC)n1c3ccccc3c3c4c(c5c6ccccc6n2c5c31)C(=O)NC4 [Staurosporine]
apoptotic cell population (FAM-VAD-FMK percent positive population): Increase in apoptotic cell population
